PMC3057995, “Potent Anti-Tumor Effect Generated by a Novel Human Papillomavirus (HPV) Antagonist Peptide Reactivating the pRb/E2F Pathway” (PLoS ONE, 2011)
Entries after “also recorded” stand apart in the source; their conditions may differ.

How the values were obtained:
[1] = tested on: HaCat human keratinocyte cells; test: MTT cell viability assay, HaCat; format: cell-based; settings: HPV-negative, data not shown
Source text: HPV16-positive SiHa and CaSki cervical carcinoma cells were supplied by China Center for Type Culture Collection (CCTCC). The following cell lines used in this project were from our laboratory: HPV18-positive HeLa cervical carcinoma cells, CNE nasopharyngeal carcinoma cells, HaCat human keratinocyte cells, COS7 (African green monkey SV40-transformed kidney fibroblast cell line), 293T (human kidney epithelial cells), and NIH/3T3 mouse embryonic fibroblast cells. All cells were maintained in a humidified atmosphere of 5% CO2, Dulbecco's modified Eagle's medium (DMEM, pH 7.2), supplemented with 10% fetal calf serum (FCS).
Cell viability was determined with an MTT assay. Briefly, the cells were seeded into 96-well plates at a density of 4–5×10^3 cells/well. The cells were allowed to recover for 24 h before the medium was replaced with DMEM supplemented with peptides at different concentrations. The solvent of the peptides was set as the control. The peptide-supplemented medium was replaced daily and the respective concentrations were maintained. The cells were subjected to an MTT cell proliferation assay at different time points. The plates were incubated at 37°C for 3 h with the addition of 20 µl/well MTT (5 mg/ml). Untransformed MTT in the solution was removed by aspiration. […] The optical density of the formazan solutions was measured by microplate reader at 540 nm.

[2] = tested on: SiHa cells; test: PI staining cell cycle analysis by flow cytometry; format: cell-based; settings: for percentage of cells in S-phase: control 25.96%
Method: Cell cycle distribution was determined by flow cytometry DNA analysis. […] After 24 h, cells were harvested and counterstained with PI (Invitrogen, Carlsbad, CA, USA) for flow cytometry according to the manufacturer's instructions. Briefly, cells were trypsinized and resuspended in 1 ml PBS. Cell suspension was dropped slowly into 4 ml anhydrous ethanol pre-cooled at −20°C and mixed. After standing at −20°C for more than 15 min, the ethanol was removed by centrifugation, after which 5 ml PBS was added and mixed, and cells were re-hydrated at room temperature for 15 min. PBS was then removed by centrifugation. Cells were stained with 2 µg/ml propidium iodide in 1 ml dilution buffer (100 mmol/L Tris, pH 7.4, 150 mmol/L NaCl, 1 mmol/L CaCl2, 0.5 mmol/L MgCl2, 0.1% Nonidet P-40, 100 µg/ml RNAase) at room temperature for 15 min and subjected to flow cytometry analysis. Analysis was performed on an Epics-XL flow cytometer (Beckman Coulter, Inc. CA, USA) with Modfit 3.0 software (Verity Software House, Topsham, ME, USA).

[3] = tested on: pRb; test: Immunohistochemistry of tumor tissues, pRb; format: in vivo, mouse (Balb/C-nu/nu); settings: 400 µg/mouse group vs control
Method: Three or two mice bearing tumor of each group were prelabeled with intra-peritoneal injection of BrdU (100 mg/kg, Sigma-Aldrich, Inc., Aaint Louis, MO, USA) 15 hours before sacrificed. Tumor specimens were then prepared as formalin-fixed, paraffin-embedded sections for hematoxylin-eosin staining, BrdU and pRb immunohistochemical staining as previously described, [57]. In brief, immunostaining was performed on formalin-fixed, paraffin-embedded sections using the anti-pRb monoclonal and anti- BrdU monoclonal antibodies, respectively. Before the application of the primary antibodies, an antigen retrieval technique was performed. […] The antibodies were detected by means of the Strept Avidin-Biotin Complex (SABC) method (Wuhan Boster Biological Technology, Ltd., Wuhan, P.R. China.) according to the manufacturer's instructions. Stained slides were examined under a Nikon ECLIPSE TE2000-U microscope (Nikon Corporation, Tokyo, Japan) and images were collected and analyzed with Pixera Penguin 600CL DiRactor™ (Pixera Corporation, Los Gatos, CA, USA). BrdU or pRb-positive cells were counted in each section. The total cell number was determined by nuclear staining with hematoxylin. At least 1000 total cells for each case were counted.

SACPKGLDWCGG (C&C bridged by disulfide bonds) (disulfide) [Pep-7]
cell proliferation (MTT) [1]: negligible effect | percentage of cells in S-phase ([2]; 32 µM Pep-7, 24 h): 14.75% | percentage of cells in S-phase ([2]; 80 µM Pep-7, 24 h): 8.75% | G1-to-S phase transition ([2]; 24 h, 32 and 80 µM, p<0.02): inhibited G1-to-S phase transition of SiHa cells significantly; also recorded: induced G1 arrest in SiHa cells | pRb protein level in tumor tissue [3]: increased
